From ChEMBL document CHEMBL6109158, “Discovery of Novel Bifunctional Agents as Potent Androgen Receptor Antagonists and Degraders for the Treatment of Enzalutamide-Resistant Prostate Cancer” (J Med Chem, 2025)

Key:
[1] = system: CWR22R; experiment: cells; assay type: functional, cell-based; conditions: Homo sapiens, 22Rv1, […]
Description: Antiproliferative activity against human 22Rv1 cells assessed as inhibition of cell growth incubated for 7 days by celltiter-glo assay

[2] = in vivo; conditions: male, C57BL/6, mouse, iv, 1 mg/kg
Description: Volume of distribution at steady state in male C57BL/6 mouse at 1 mg/kg, iv

[3] = in vivo; conditions: male, C57BL/6, mouse, iv, 1 mg/kg; remark: listed apart in the source
[4] = in vivo; conditions: male, C57BL/6, mouse, brain, iv, 1 mg/kg
Description: Ratio of drug concentration in male C57BL/6 mouse brain to plasma at 1 mg/kg, iv measured after 1 hr

[5] = in vivo; conditions: male, C57BL/6, mouse, iv, 1 mg/kg; remark: listed apart in the source
Description: Clearance in male C57BL/6 mouse at 1 mg/kg, iv

[6] = in vivo; conditions: male, C57BL/6, mouse, iv, 1 mg/kg; remark: listed apart in the source
Description: Half life in male C57BL/6 mouse at 1 mg/kg, iv

[7] = in vivo; conditions: male, C57BL/6, mouse, iv, 1 mg/kg; remark: listed apart in the source
Description: C0 in male C57BL/6 mouse at 1 mg/kg, iv

[8] = in vitro; conditions: human, microsomes
[9] = in vitro; conditions: mouse, microsomes
Description: Metabolic stability in mouse liver microsomes assessed as half life

[10] = in vitro; conditions: human, microsomes; remark: listed apart in the source
[11] = cells; assay type: functional, cell-based; conditions: Homo sapiens, Enzalutamide-resistant C4-2B
[12] = system: LNCaP; experiment: cells; assay type: functional, cell-based; conditions: Homo sapiens
Description: Antiproliferative activity against human LNCaP cells assessed as inhibition of cell growth incubated for 7 days by celltiter-glo assay

[13] = system: LNCaP C4-2; experiment: cells; assay type: functional, cell-based; conditions: Homo sapiens
Description: Antiproliferative activity against human C4-2 cells assessed as inhibition of cell growth incubated for 7 days by celltiter-glo assay

[14] = in vitro; conditions: mouse, microsomes; remark: listed apart in the source

C[C@](O)(Cn1ccc2cc(F)ccc21)C(=O)Nc1ccc(C#N)c(C(F)(F)F)c1
IC50 [1]: 3.53 µM

COc1cc(C#N)ccc1N1C2CCC1CN(C[C@](C)(O)C(=O)Nc1ccc(C#N)c(C(F)(F)F)c1)C2
IC50 [1]: 4.12 µM

C[C@](O)(CN1C[C@@H]2C[C@H]1CN2c1ccc(C#N)cc1)C(=O)Nc1ccc(C#N)c(C(F)(F)F)c1
IC50 [1]: 10 µM

Cc1cc(C#N)ccc1N1C2CCC1CN(C[C@](C)(O)C(=O)Nc1ccc(C#N)c(C(F)(F)F)c1)C2
IC50 [1]: 3.08 µM

C[C@](O)(CN1CC2CCC(C1)N2c1cnc(C#N)nc1)C(=O)Nc1ccc(C#N)c(C(F)(F)F)c1
IC50 [1]: 5.24 µM

COc1c(C#N)ccc(NC(=O)[C@@](C)(O)CN2CC3CCC(C2)N3c2ccc(C#N)cc2)c1F
IC50 [1]: 5.3 µM

C[C@](O)(CN1CC2CCC(C1)N2c1ccc(C#N)cc1)C(=O)Nc1cnc(C#N)c(Cl)c1
IC50 [1]: 1.68 µM
Vd [2]: 1.42 L/kg
AUC(0-t) [3]: 1030 ng·h/mL
Kp at 1 h [4]: 0.33
clearance [5]: 16.2 mL/min/kg
half-life [6]: 96.6 min
C0 [7]: 1140 ng/mL

C[C@](O)(CN1CC2CCC(C1)N2c1ccc(C#N)cn1)C(=O)Nc1ccc(C#N)c(C(F)(F)F)c1
IC50 [1]: 2.28 µM

COc1cc(NC(=O)[C@@](C)(O)CN2CC3CCC(C2)N3c2ccc(C#N)cc2)ccc1C#N
IC50 [1]: 2.23 µM

C[C@](O)(CN1CC2CCC(C1)N2c1cnc(C#N)nc1)C(=O)Nc1cnc(C#N)c(C(F)(F)F)c1
IC50 [1]: 15.8 µM

C[C@](O)(CN1CC2CCC(C1)N2Cc1ccc(C#N)cc1)C(=O)Nc1ccc(C#N)c(C(F)(F)F)c1
IC50 [1]: 20.5 µM

C[C@](O)(CN1CC2CCC(C1)N2c1ccc(C#N)cc1)C(=O)Nc1ccc([N+](=O)[O-])c(C(F)(F)F)c1
IC50 [1]: 1.65 µM

C[C@](O)(CN1CC2CCC(C1)N2c1ccc(C#N)cc1)C(=O)Nc1ccc(C#N)c(Cl)c1
half-life [8]: 9.95 min
Vd [2]: 1.87 L/kg
AUC(0-t) [3]: 2330 ng·h/mL
Kp at 1 h [4]: 0.55
clearance [5]: 7.09 mL/min/kg
half-life [9]: 12.2 min
half-life [6]: 244 min
microsomal CLint [10]: 139 µL/min/mg
IC50 [11]: 5.23 µM
C0 [7]: 1420 ng/mL
IC50 [12]: 1.57 µM
IC50 [13]: 1.19 µM
microsomal CLint [14]: 114 µL/min/mg

C[C@](O)(CN1CC2CCC(C1)N2c1ncc(C#N)cn1)C(=O)Nc1ccc(C#N)c(C(F)(F)F)c1
IC50 [1]: 4.05 µM

C[C@](O)(CN1CC2CCC(C1)N2c1ccc(F)cc1)C(=O)Nc1ccc(C#N)c(C(F)(F)F)c1
IC50 [1]: 12.9 µM

CNC(=O)c1ccc(N2C(=S)N(c3cnc(C#N)c(C(F)(F)F)c3)C(=O)C23CCC3)cc1F [APALUTAMIDE]
IC50 [1]: > 100 µM

N#Cc1ccc(O[C@H]2CC[C@H](NC(=O)c3ccc(N4CCC(CN5CCN(c6cc7c(cc6F)C(=O)N(C6CCC(=O)NC6=O)C7=O)CC5)CC4)nn3)CC2)cc1Cl (some centres not stated) [BAVDEGALUTAMIDE]
IC50 [1]: > 100 µM

CC(O)c1cc(C(=O)N[C@@H](C)Cn2ccc(-c3ccc(C#N)c(Cl)c3)n2)n[nH]1 (some centres not stated) [DAROLUTAMIDE]
IC50 [1]: 31.2 µM

C[C@]12CC[C@H](O)CC1=CC[C@@H]1[C@@H]2CC[C@]2(C)C(n3cnc4ccccc43)=CC[C@@H]12 [GALETERONE]
IC50 [1]: 12 µM
